From article PMC3710259, “Experimental detection of proteolytic activity in a signal peptide peptidase of Arabidopsis thaliana” (BMC Biochemistry, 2013)

Tests used:
AtSPP-GFP = biological target: T1, AtSPP-GFP (Arabidopsis thaliana, UniProt O81062); assay: gel immunoblot cleavage assay of myc-Prl-PP-FLAG with DDM-solubilised membranes; format: biochemical; settings: 1 μM myc-Prl-PP-FLAG substrate, 0.25% DDM, 37°C, 15 h; 50 μM inhibitor
T1 construct: gene SPP; full length with C-terminal yEGFP-octa-His tag kept, expressed in Saccharomyces cerevisiae BY2777; DDM-solubilised yeast membranes; estimated 65 kDa
T1 sequence (O81062 1-344): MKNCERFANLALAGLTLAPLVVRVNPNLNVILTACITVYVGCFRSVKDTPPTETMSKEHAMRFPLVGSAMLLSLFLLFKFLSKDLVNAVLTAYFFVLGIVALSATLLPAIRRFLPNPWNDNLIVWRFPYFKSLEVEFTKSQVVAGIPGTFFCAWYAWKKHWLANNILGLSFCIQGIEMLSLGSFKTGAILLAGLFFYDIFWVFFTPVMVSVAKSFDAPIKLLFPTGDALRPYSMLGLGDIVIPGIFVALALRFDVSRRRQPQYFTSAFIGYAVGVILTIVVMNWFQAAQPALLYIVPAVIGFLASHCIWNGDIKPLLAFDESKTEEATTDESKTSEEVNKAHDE

native human SPP (HsSPP) = biological target: T2, native human SPP (HsSPP) (Homo sapiens, UniProt Q8TCT9); assay: as above; format: biochemical; settings: 1 μM myc-Prl-PP-FLAG substrate, 0.25% DDM, 37°C; 10 μM inhibitor
T2 construct: gene HM13; endogenous, untagged, in DDM-solubilised membrane fraction of HEK293T cells
T2 sequence (Q8TCT9 1-377): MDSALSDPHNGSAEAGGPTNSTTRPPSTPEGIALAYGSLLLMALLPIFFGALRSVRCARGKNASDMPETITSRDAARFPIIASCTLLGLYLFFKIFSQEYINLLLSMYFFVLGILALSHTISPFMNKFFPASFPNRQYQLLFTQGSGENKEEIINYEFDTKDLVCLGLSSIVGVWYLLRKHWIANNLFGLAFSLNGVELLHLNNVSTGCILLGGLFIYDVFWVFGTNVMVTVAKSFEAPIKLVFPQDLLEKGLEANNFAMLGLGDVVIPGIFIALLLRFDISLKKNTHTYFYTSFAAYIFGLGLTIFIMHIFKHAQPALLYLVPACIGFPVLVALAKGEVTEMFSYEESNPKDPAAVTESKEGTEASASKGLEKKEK

CC(C)C[C@H](NC(=O)OCc1ccccc1)C(=O)N[C@@H](CC(C)C)C(=O)NCC(=O)CNC(=O)[C@H](CC(C)C)NC(=O)[C@H](CC(C)C)NC(=O)OCc1ccccc1 [(Z-LL)2-ketone, 1,3-di-(N-carboxybenzoyl-L-leucyl-L-leucyl) amino acetone]
inhibition at 50 μM (AtSPP-GFP): rate of proteolytic activity of AtSPP-GFP was weak, the activity was inhibited by the (Z-LL)2-ketone
inhibition at 10 μM (native human SPP (HsSPP)): the SPP was inhibited by the (Z-LL)2-ketone
